Experimental data published in patent US20050267182A1, “Urea derivatives as FLT-3 modulators” (Ambit Biosciences Corporation, priority 2003, published 2005).

Molecular target: T1, FLT3 (Homo sapiens, UniProt P36888)
T1 construct: FLT3(DKIN); made in house
T1 sequence (P36888 610-943 limits assumed): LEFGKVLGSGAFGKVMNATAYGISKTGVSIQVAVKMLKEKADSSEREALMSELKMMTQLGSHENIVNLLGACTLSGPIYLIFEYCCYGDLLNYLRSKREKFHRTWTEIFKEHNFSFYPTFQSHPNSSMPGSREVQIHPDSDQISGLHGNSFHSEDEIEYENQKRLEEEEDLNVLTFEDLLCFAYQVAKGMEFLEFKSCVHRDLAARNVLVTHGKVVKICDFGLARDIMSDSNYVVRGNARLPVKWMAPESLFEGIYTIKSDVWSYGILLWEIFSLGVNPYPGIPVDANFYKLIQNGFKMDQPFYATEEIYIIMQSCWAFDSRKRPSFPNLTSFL
Experiment: Binding constant (Kd) measurement, phage-displayed kinase competition binding assay
Settings: FLT3(DKIN) construct
Excerpt: Binding Constant (Kd) Measurements for Small-Molecule-Kinase Interactions
The term “ND” represents non-determined values.

Structure (SMILES) | Binding Assay: FLT3(DKIN) | Kd
Cc1ccc(-n2nc(C(C)(C)C)cc2NC(=O)Nc2ccc(C(C)C)cc2)cc1 [Compound D1, 1-(3-tert-butyl-1-p-tolyl-1H-pyrazol-5-yl)-3-(4-isopropylphenyl)urea] | + + | 
COc1ccc(N(C)C(=O)N(C)c2cc(C(C)(C)C)no2)cc1 [Compound J8] |  | > 10 µM
COc1ccc(NC(=O)Nc2cc(C(C)(C)C)nn2-c2ccc(C)cc2)cc1 [Compound H15] | + + + + | 
Cc1ccc(-n2nc(C(C)(C)C)cc2NC(=O)Nc2ccc(O)cc2)cc1 [Compound H12] | + + + | 
CC(C)(C)c1cc(NC(=O)Nc2ccc(Oc3ccccc3)cc2)no1 [Compound A24] | + + + + | 
CC(C)(C)c1cc(NC(=O)Nc2ccc(Cl)cc2Cl)no1 [Compound A7] | + + + | 
COc1ccc(NC(=O)Nc2cc(C(C)(C)C)on2)cc1 [Compound A29] | + + + + | 
CSc1ccc(NC(=O)Nc2cc(C(C)(C)C)on2)cc1 [Compound A37] | + + + + | 
CC(Oc1ccc(NC(=O)Nc2cc(C(C)(C)C)on2)cc1)c1ccccc1 (centres unmarked) [Compound G17] | + + + + | 
COc1ccc(N(C)C(=O)Nc2cc(C(C)(C)C)on2)cc1 [Compound J10] | + + + | 
CC(C)(C)c1cc(N2CCCN(c3ccc(OCc4ccccc4)cc3)C2=O)on1 [Compound E2] | + + + | 
O=C(Nc1ccc(Cl)cc1)Nc1cc(C2CC2)nn1-c1ccccc1 [Compound D10] | + + + | 
CC(C)(C)c1cc(NC(=O)Nc2ccc(OCC(O)CO)cc2)no1 (centres unmarked) [Compound G28] | + + + + | 
O=C(Nc1ccc(OCc2ccccc2)cc1)Nc1cc(C2CC2)nn1-c1ccccc1 [Compound H8] | + + + | 
CC(C)(C)c1cc(NC(=O)Nc2ccc(-c3ccccc3)cc2)no1 [Compound A23] | + + + + | 
COc1ccc(NC(=O)Nc2cc(C(C)(C)C)no2)cc1 [Compound A30] | + + + + | 
CC(C)(C)c1cc(NC(=O)Nc2ccc(CC(=O)O)cc2)no1 [Compound C3] | + + | 
CC(C)(C)c1cc(NC(=O)Nc2ccc(Cl)c(C(F)(F)F)c2)no1 [Compound A1, 1-(5-tert-butylisoxazol-3-yl)-3-(4-chloro-3-(trifluoromethyl)phenyl)urea] | + + + | 
CSc1ccc(NC(=O)Nc2cc(C(C)(C)C)no2)cc1 [Compound A39] | + + + | 
Cc1ccc(NC(=O)Nc2cc(C(C)(C)C)on2)cc1 [Compound A33] | + + + + | 

Structure (SMILES) | Binding Assay: FLT3(DKIN) | Kd
Cc1ccc(-n2nc(C(C)(C)C)cc2NC(=O)Nc2ccc(OCc3ccccc3)cc2)cc1 [Compound H5] | + + + + | 
Cc1cc(NC(=O)Nc2ccc(OCc3ccccc3)cc2)n(-c2ccccc2)n1 [Compound H4] | + + + | 
CC(C)(C)c1cc(NC(=O)Nc2cccc(Cl)c2)no1 [Compound A48] | + + + | 
O=C(Nc1ccc(Cl)cc1)Nc1cc(C2CC2)nn1-c1ccccc1 [Compound D2] | + + + + | 
CC(C)(C)c1cc(NC(=O)Nc2ccc(OC(F)(F)F)cc2)on1 [Compound A13] | + + | 
COc1ccc(N2CCCN(c3cc(C(C)(C)C)no3)C2=O)cc1 [Compound E5] | + + | 
CC(C)c1ccc(NC(=O)Nc2cc(C(C)(C)C)on2)cc1 [Compound A25] | + + | 
Cc1ccc(-n2nc(C(C)(C)C)cc2NC(=O)Nc2ccc(Cl)cc2)cc1 [Compound H14] | + + + + | 
Cc1ccc(-n2nc(C(C)(C)C)cc2NC(=O)Nc2cc(C(C)(C)C)on2)cc1 [Compound H11] | + + + + | 
C[S+]([O-])c1ccc(NC(=O)Nc2cc(C(C)(C)C)on2)cc1 (centres unmarked) [Compound A46] | + + + | 
CCCCc1ccc(NC(=O)Nc2cc(C(C)(C)C)nn2C)cc1 [Compound D12] | + + + | 
CC(C)(C)c1cc(NC(=O)Nc2ccccc2)no1 [Compound A34] | + + + | 
COc1ccc(N(N)C(=O)Nc2cc(C(C)(C)C)on2)cc1 [Compound J14] | + + + | 
CC(C)(C)c1cc(NC(=O)Nc2ccc(Cl)cc2)on1 [Compound A32] | + + + | 
Cn1nc(C2CC2)cc1NC(=O)Nc1ccc(OCc2ccccc2)cc1 [Compound H7] | + + | 
CC(C)(C)c1cc(NC(=S)Nc2ccc(N3CCOCC3)cc2)no1 [Compound F1, 1-(5-tert-butylisoxazol-3-yl)-3-(4-morpholinophenyl)thiourea] |  | > 10 µM
COc1cccc(CNC(=O)Nc2cc(C(C)(C)C)on2)c1 [Compound B3] | + + + + | 
CC(C)(C)c1cc(NC(=O)Nc2ccc(C(=O)O)cc2)no1 [Compound C2] | + + | 
Cn1nc(C(C)(C)C)cc1NC(=O)Nc1ccc(Cl)cc1 [Compound D11] | + + + | 
CC(C)(C)c1cc(NC(=O)Nc2ccc(OCCN3CCOCC3)c3ccccc23)no1 [Compound K1] | + + + | 

Other lines, results leading:

Binding Assay: FLT3(DKIN) | Kd | Structure (SMILES)
+ + + |  | O=C(Nc1ccc(Cl)cc1)Nc1ccc(-n2nc(Br)c(Br)c2Br)cc1 [Compound Z49]
+ + + |  | CC(C)(C)c1cc(NC(=O)Nc2ccc(NC(=O)Cc3ccc(OCc4ccccc4)cc3)cc2)no1 [Compound N98]
+ + + |  | Cn1nc(C(C)(C)C)cc1NC(=O)Nc1ccc(F)cc1 [Compound Z19]
+ + + |  | CC(C)(C)c1cc(NC(=O)Nc2ccc(C(=O)NCCO)cc2)no1 [Compound N87]
+ + + |  | CC(C)(C)c1cc(NC(=O)Nc2ccc(C(=O)NCc3ccccc3)cc2)no1 [Compound N89]
+ + + |  | O=C(Nc1ccc(Br)cc1)Nc1cc(C(F)(F)F)cc(Cl)n1 [Compound Z72]
+ + + |  | C/C=C/C(=O)Nc1ccc(NC(=O)Nc2cc(C(C)(C)C)on2)cc1 [Compound N93]
+ + + |  | CC(C)(C)c1cc(NC(=O)Nc2ccc(C(=O)NCc3ccc4c(c3)OCO4)cc2)no1 [Compound N97]
+ + + |  | CC(C)(C)c1cc(NC(=O)Nc2ccc(-c3nc(-c4ccc(C(F)(F)F)cc4)no3)cc2)no1 [Compound P8]
+ + + + |  | CC(C)(C)c1cc(NC(=O)Nc2ccc(C(N)=O)cc2)no1 [Compound N86]
+ + + |  | C[C@H](NC(=O)c1ccc(NC(=O)Nc2cc(C(C)(C)C)on2)cc1)c1ccccc1 [Compound N88]
+ + + + |  | CC(C)(C)c1cc(NC(=O)Nc2ccc(NC(=O)C3CCCCC3)cc2)no1 [Compound N91]
 | > 10 µM | CC(C)(C)c1cc(NC(=O)Nc2ccc(S(=O)(=O)Nc3ncccn3)cc2)no1 [Compound V3]
+ + + |  | CC(C)(C)c1cc(NC(=O)Nc2ccc(NC(=O)c3c(F)cccc3C(F)(F)F)cc2)no1 [Compound N95]
+ + + |  | O=C(Nc1ccc(Cl)cc1)Nc1cc(C(F)(F)F)cc(Cl)n1 [Compound Z76]
 | > 10 µM | CC(=O)NS(=O)(=O)c1ccc(NC(=O)Nc2cc(C(C)(C)C)on2)cc1 [Compound V4]
